In PubChem BioAssay (NCI):
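Grown in 96-well plates, cells were treated for 48 hours with each compound at five concentrations. Insufficient inhibition: endpoint recorded as highest concentration tested. TGI: concentration producing complete growth inhibition.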

Tests used:
Assay in all cases: growth of human tumour cells (NCI), 48 h
[1] = test system: MALME-3M melanoma
[2] = test system: TK-10 renal
[3] = test system: SNB-19 CNS
[4] = test system: OVCAR-4 ovarian
[5] = test system: SNB-78 CNS
[6] = test system: OVCAR-8 ovarian
[7] = test system: UACC-257 melanoma
[8] = test system: HL-60(TB) leukemia
[9] = test system: ACHN renal
[10] = test system: SNB-75 CNS
[11] = test system: UO-31 renal
[12] = test system: HT29 colon
[13] = test system: M14 melanoma
[14] = test system: LOX IMVI melanoma
[15] = test system: SF-295 CNS
[16] = test system: NCI-H460 lung
[17] = test system: KM12 colon
[18] = test system: NCI-H522 lung
[19] = test system: DLD-1 colon
[20] = test system: HOP-62 NSCLC
[21] = test system: OVCAR-5 ovarian
[22] = test system: UACC-62 melanoma
[23] = test system: HCC-2998 colon
[24] = test system: COLO 205 colon
[25] = test system: DMS 114 small cell lung
[26] = test system: NCI-H226 lung
[27] = test system: RPMI-8226 leukemia
[28] = test system: OVCAR-3 ovarian
[29] = test system: SN12C renal
[30] = test system: 786-0 renal
[31] = test system: MOLT-4 leukemia
[32] = test system: SF-539 CNS
[33] = test system: RXF-631 renal
[34] = test system: NCI-H23 lung
[35] = test system: SR leukemia
[36] = test system: K-562 leukemia
[37] = test system: SW-620 colon
[38] = test system: IGROV1 ovarian
[39] = test system: HCT-116 colon
[40] = test system: CCRF-CEM leukemia
[41] = test system: SK-MEL-28 melanoma
[42] = test system: LXFL 529 NSCLC
[43] = test system: HOP-18 NSCLC
[44] = test system: RXF 393 renal
[45] = test system: KM20L2 colon
[46] = test system: SK-OV-3 ovarian
[47] = test system: EKVX NSCLC
[48] = test system: XF 498 CNS
[49] = test system: M19-MEL melanoma
[50] = test system: SF-268 CNS
[51] = test system: SK-MEL-5 melanoma
[52] = test system: A549 NSCLC
[53] = test system: HOP-92 NSCLC
[54] = test system: HCT-15 colon
[55] = test system: DMS 273 small cell lung
[56] = test system: U251 CNS
[57] = test system: SK-MEL-2 melanoma
[58] = test system: A498 renal

Q: `COc1ccc(-c2cc(=O)c3ccc(F)cc3[nH]2)cc1` was tested. Which TGI [1] did it give?
A: > 100 µM

Q: What about the TGI [2] of the same molecule?
A: > 100 µM

Q: What about the TGI [3] of the same molecule?
A: > 100 µM

Q: What about the TGI [4] of the same molecule?
A: > 100 µM

Q: And the TGI [5]?
A: > 100 µM

Q: And the TGI [6]?
A: > 100 µM

Q: And the TGI [7]?
A: > 100 µM

Q: What about the TGI [8] of the same molecule?
A: > 100 µM

Q: And the TGI [9]?
A: > 100 µM

Q: What about the TGI [10] of the same molecule?
A: > 100 µM

Q: What about the TGI [11] of the same molecule?
A: > 100 µM

Q: And the TGI [12]?
A: > 100 µM

Q: What about the TGI [13] of the same molecule?
A: > 100 µM

Q: And the TGI [14]?
A: > 100 µM

Q: What about the TGI [15] of the same molecule?
A: > 100 µM

Q: And the TGI [16]?
A: > 100 µM

Q: And the TGI [17]?
A: > 100 µM

Q: What about the TGI [18] of the same molecule?
A: > 100 µM

Q: And the TGI [19]?
A: > 100 µM

Q: And the TGI [20]?
A: > 100 µM

Q: What about the TGI [21] of the same molecule?
A: > 100 µM

Q: And the TGI [22]?
A: > 100 µM

Q: And the TGI [23]?
A: > 100 µM

Q: And the TGI [24]?
A: > 100 µM

Q: What about the TGI [25] of the same molecule?
A: > 100 µM

Q: And the TGI [26]?
A: > 100 µM

Q: And the TGI [27]?
A: > 100 µM

Q: What about the TGI [28] of the same molecule?
A: > 100 µM

Q: And the TGI [29]?
A: > 100 µM

Q: And the TGI [30]?
A: > 100 µM

Q: And the TGI [31]?
A: > 100 µM

Q: What about the TGI [32] of the same molecule?
A: > 100 µM

Q: And the TGI [33]?
A: > 100 µM

Q: And the TGI [34]?
A: > 100 µM

Q: What about the TGI [35] of the same molecule?
A: > 100 µM

Q: And the TGI [36]?
A: > 100 µM

Q: What about the TGI [37] of the same molecule?
A: > 100 µM

Q: And the TGI [38]?
A: > 100 µM

Q: What about the TGI [39] of the same molecule?
A: > 100 µM

Q: What about the TGI [40] of the same molecule?
A: > 100 µM

Q: And the TGI [41]?
A: > 100 µM

Q: What about the TGI [42] of the same molecule?
A: > 100 µM

Q: And the TGI [43]?
A: > 100 µM

Q: What about the TGI [44] of the same molecule?
A: > 100 µM

Q: And the TGI [45]?
A: > 100 µM

Q: What about the TGI [46] of the same molecule?
A: > 100 µM

Q: And the TGI [47]?
A: > 100 µM

Q: What about the TGI [48] of the same molecule?
A: > 100 µM

Q: What about the TGI [49] of the same molecule?
A: > 100 µM

Q: What about the TGI [50] of the same molecule?
A: > 100 µM

Q: What about the TGI [51] of the same molecule?
A: > 100 µM

Q: And the TGI [52]?
A: > 100 µM

Q: What about the TGI [53] of the same molecule?
A: > 100 µM

Q: `CCOC(=O)N1CCc2cc(OC)c(OC)cc2/C1=C/c1ccc(OC)c(OC)c1` was tested. Which TGI [1] did it give?
A: 67.6 µM

Q: What about the TGI [2] of the same molecule?
A: > 100 µM

Q: And the TGI [3]?
A: > 100 µM

Q: What about the TGI [5] of the same molecule?
A: > 100 µM

Q: And the TGI [7]?
A: > 100 µM

Q: What about the TGI [54] of the same molecule?
A: > 100 µM

Q: What about the TGI [8] of the same molecule?
A: 65.1 µM

Q: And the TGI [9]?
A: > 100 µM

Q: And the TGI [10]?
A: > 100 µM

Q: What about the TGI [11] of the same molecule?
A: > 100 µM

Q: What about the TGI [12] of the same molecule?
A: 98.4 µM

Q: And the TGI [13]?
A: > 100 µM

Q: And the TGI [14]?
A: > 100 µM

Q: What about the TGI [15] of the same molecule?
A: > 100 µM

Q: And the TGI [17]?
A: > 100 µM

Q: What about the TGI [18] of the same molecule?
A: > 100 µM

Q: What about the TGI [19] of the same molecule?
A: > 100 µM

Q: And the TGI [55]?
A: > 100 µM

Q: What about the TGI [20] of the same molecule?
A: > 100 µM

Q: What about the TGI [21] of the same molecule?
A: > 100 µM

Q: What about the TGI [22] of the same molecule?
A: > 100 µM

Q: What about the TGI [23] of the same molecule?
A: > 100 µM

Q: And the TGI [56]?
A: > 100 µM

Q: What about the TGI [24] of the same molecule?
A: > 100 µM

Q: And the TGI [25]?
A: > 100 µM

Q: And the TGI [26]?
A: > 100 µM

Q: And the TGI [27]?
A: 56.5 µM

Q: What about the TGI [28] of the same molecule?
A: > 100 µM

Q: And the TGI [29]?
A: > 100 µM

Q: What about the TGI [30] of the same molecule?
A: > 100 µM

Q: What about the TGI [31] of the same molecule?
A: > 100 µM

Q: And the TGI [32]?
A: > 100 µM

Q: What about the TGI [34] of the same molecule?
A: > 100 µM

Q: And the TGI [35]?
A: > 100 µM

Q: And the TGI [36]?
A: > 100 µM

Q: What about the TGI [37] of the same molecule?
A: > 100 µM

Q: What about the TGI [38] of the same molecule?
A: > 100 µM

Q: And the TGI [39]?
A: > 100 µM

Q: And the TGI [40]?
A: > 100 µM

Q: And the TGI [41]?
A: > 100 µM

Q: And the TGI [42]?
A: > 100 µM

Q: What about the TGI [43] of the same molecule?
A: > 100 µM

Q: What about the TGI [44] of the same molecule?
A: > 100 µM

Q: And the TGI [45]?
A: > 100 µM

Q: What about the TGI [46] of the same molecule?
A: > 100 µM

Q: What about the TGI [47] of the same molecule?
A: > 100 µM

Q: And the TGI [57]?
A: > 100 µM

Q: What about the TGI [48] of the same molecule?
A: 98 µM

Q: What about the TGI [49] of the same molecule?
A: > 100 µM

Q: What about the TGI [50] of the same molecule?
A: > 100 µM

Q: And the TGI [51]?
A: 44.4 µM

Q: What about the TGI [52] of the same molecule?
A: > 100 µM

Q: What about the TGI [53] of the same molecule?
A: > 100 µM

Q: And the TGI [58]?
A: > 100 µM
